Measured values: patent US20110009267A1, “Process for Improving Seedling Growth and/or Early Emergence of Crops” (Bayer CropScience AG, priority 2009, published 2011)

What was measured:
Type in all cases: in vivo
[1] = system: Soybean variety "Cordoba"; assay: Plant growth test, greenhouse, seed treatment, soybean variety Cordoba; settings: for Green surface, % of untreated: 15 days; for Green surface: 15 days at 20° C., 80% relative humidity
Experimental: (§1) The test is performed in the greenhouse. 7 soybean seeds per treatment of 2 varieties (Cordoba and Isidor) were sown in 5 liter pots containing 13 cm of a mix of steamed field soil and sand (1:1), 2 replicates were made. The tested compound as well as the reference active ingredient were both solved in a standard solvent used for soybean seed application and known to be safe. Seed treatment was performed with the aid of laboratory equipment. For untreated, 4 replicates were made and seeds were treated with the pure solvent. 2 fungicide concentrations were tested: 5 g a.i./100 kg and 10 g a.i./100 kg. Seeds were then covered by 5 cm of the same mix of steamed field soil and sand (1:1). Pots were incubated in the greenhouse 15 days at 20° C. and 80% relative humidity. Assessment consisted of calculation of green surface of soybean (pixel) using a digital imaging software to manage data analysis.

Soybean variety "Isidor" = assay: Plant growth test, greenhouse, seed treatment, soybean variety Isidor; settings: for Green surface, % of untreated: 15 days; for Green surface: 15 days at 20° C., 80% relative humidity
Experimental: as §1

soybean seeds = assay: Emergence of soybean plants after seed treatment; settings: soybean seeds treated

SMILES	Green surface, % of untreated ([1]; seed treatment 5 g a.i./100kg)	Green surface ([1]; seed treatment 5 g a.i./100kg) [pixel]	Green surface, % of untreated ([1]; seed treatment 10 g a.i./100kg)	Green surface ([1]; seed treatment 10 g a.i./100kg) [pixel]	Green surface, % of untreated (Soybean variety "Isidor"; seed treatment 5 g a.i./100kg)	Green surface (Soybean variety "Isidor"; seed treatment 5 g a.i./100kg) [pixel]	Green surface, % of untreated (Soybean variety "Isidor"; seed treatment 10 g a.i./100kg)	Green surface (Soybean variety "Isidor"; seed treatment 10 g a.i./100kg) [pixel]	Emergence of the soybean plants in comparison to untreated plants (soybean seeds)
O=C(Nc1ccccc1-c1ccc(Cl)cc1)c1cccnc1Cl [Boscalid, reference compound]	109 % of untreated	74661	113 % of untreated	77243	86 % of untreated	71972	86 % of untreated	72634	
Cc1nn(C)c(F)c1C(=O)Nc1ccccc1C(C)CC(C)C (centres unmarked) [Penflufen, N-{2-(1,3-dimethylbutyl)anilino}-1,3-dimethyl-5-fluor-4-pyrazol]	160 % of untreated	109373	158 % of untreated	108284	125 % of untreated	105395	133 % of untreated	111543	earlier emergence
